In patent US20260258500A1, “BIOMARKER FOR METASTATIC BLADDER CANCER” (DONG-A UNIVERSITY RESEARCH FOUNDATION FOR INDUSTRY-ACADEMY …, priority 2022, published 2026):

Legend:
Type in all cases: cell-based, human
[1] = tested on: GRCB cell lines (gemcitabine-resistant 5637); assay: MTT cell viability / IC50 for gemcitabine, GRCB cell lines
Experimental: (§1) To analyze stepwise molecular mechanisms occurring during a process of anticancer drug resistance in bladder cancer patients, bladder cancer cell lines having resistance to gemcitabine (GEM) as a representative anticancer drug for bladder cancer were constructed. Specifically, five candidate groups A to E of the 5637 cell line were treated with 5 μM GEM (Eli Lilly and company, IN, USA) and cultured for 3 days. Thereafter, the residual cells were washed with phosphate-buffered saline (PBS) and replaced with a new medium. The process was repeated until the cells recovered to 90% confluency, and after each stage was completed, several cell stocks in the same state were stored in liquid nitrogen. Thereafter, the recovered cells were inoculated in a plate and additionally treated with GEM. A total of 15-phase GEM-resistant bladder cancer cell lines were constructed using the method, which were named GRCA, GRCB, GRCC, GRCD, and GRCE according to each group.
(§2) For cell proliferation analysis, 1×10^3 cells were seeded in a 96-well plate and cultured for 24 hours. Thereafter, the cells were treated with 1 μM GEM for 0, 24, 48, and 72 hours, and cell viability was measured at each time point. The cells were then treated with thiazolyl blue tetrazolium bromide (MTT) (Sigma-Aldrich, St. Louis, MO, USA) and reacted for 1 hour. After the reaction was completed, the medium containing MTT was fully removed, and MTT formazan was dissolved using dimethyl sulfoxide (DMSO, Duchefa Biochemie, BH Haarlem, Netherlands). Thereafter, the absorbance was measured at 540 nm using a spectrophotometer microplate reader (Victor 3).

[2] = tested on: 5637 parental cell line (P0); assay: MTT cell viability after gemcitabine treatment, parental cell line; settings: C of FIG. 1
Experimental: as §2

[3] = tested on: GRCA cell lines (gemcitabine-resistant 5637); assay: MTT cell viability / IC50 for gemcitabine, GRCA cell lines
Experimental: as §1, §2

[4] = P15 cell line, compared to other candidate groups, C of FIG. 1

For Nc1ccn([C@@H]2O[C@H](CO)[C@@H](O)C2(F)F)c(=O)n1 [GEM, gemcitabine], the “IC50 values for GEM” value ([1]; P0, P3, P7, P15 cell lines, B of FIG. 2) was “increased in a phase-dependent manner”, the “Resistance to GEM (cell viability)” value [1, 4] was “significantly highly resistant” and the “Resistance to GEM across stages” value ([1]; stages P0, P2, P3, P5, P7, P10, P15, E of FIG. 1) was “increased in a phase-dependent manner”. For the same compound, the “Resistance to GEM (cell viability)” value [2] was “sensitive”, the “IC50 values for GEM” value ([3]; P0, P3, P7, P15 cell lines, A of FIG. 2) was “increased in a phase-dependent manner” and the “Resistance to GEM (cell viability)” value [3, 4] was “significantly highly resistant”. For the same compound, the “Resistance to GEM across stages” value ([3]; stages P0, P2, P3, P5, P7, P10, P15, D of FIG. 1) was “increased in a phase-dependent manner”.
